Assay results as given in US20250213705A1, “PSMA TARGETING LIGANDS AND METHODS OF USE” (Bright Peak Therapeutics AG, priority 2023, published 2025).

Experiments:
[1] = target: Recombinant Human PSMA/FOLH1 Protein (Homo sapiens (Human), UniProt Q04609); test: Inhibition assay (Amplex Red glutamic acid/glutamate oxidase, NAAG substrate); type: biochemical; details: Target PSMA, average of N replicates; for IC50: PSMA 5 nM, NAAG 40 μM; for Ki: calculated based on Cheng-Prusoff equation
Protocol: Amplex™ Red Glutamic Acid/Glutamate Oxidase Assay Kit Catalog number: A12221 (Thermofisher); Recombinant Human PSMA/FOLH1 Protein, CF (rnd systems); N-Acetyl-Asp-Glu (NAAG) (Sigma Aldrich; 96 well half area plate; Enspire plate reader.
Prepare a working solution of 100 μM Amplex® Red reagent containing 0.25 U/mL HRP, 0.08 U/mL L-glutamate oxidase, 0.5 U/mL 1-glutamate-pyruvate transaminase, 200 μM L-alanine and keep protected from light. […] Final concentration is 5 nM. Transfer 10 μl/well of the inhibitor solution previously prepared in a separate 96 wells/plate.
Pipette 20 μl/well of the working solution prepared above. Incubate the reactions for 30 min at 37° C., protected from light. Because the assay is continuous (not terminated), fluorescence may be measured at multiple time points to follow the kinetics of the reactions. Measure the fluorescence in a fluorescence microplate reader using excitation in the range of 530-560 nm and emission detection at ˜590 nm. Ec50s were determined with GraphPad Prism. Ki is calculated based on Cheng-Prusoff equation.

human FOLH1 = human FOLH1 (Homo sapiens (Human), UniProt Q04609); test: SPR analysis of binding kinetics to biotinylated FOLH1 (Biacore 8K); details: ligand PSMA; for Kon: association rate; for koff: dissociation rate
Sequence of human FOLH1 (Q04609 whole entry): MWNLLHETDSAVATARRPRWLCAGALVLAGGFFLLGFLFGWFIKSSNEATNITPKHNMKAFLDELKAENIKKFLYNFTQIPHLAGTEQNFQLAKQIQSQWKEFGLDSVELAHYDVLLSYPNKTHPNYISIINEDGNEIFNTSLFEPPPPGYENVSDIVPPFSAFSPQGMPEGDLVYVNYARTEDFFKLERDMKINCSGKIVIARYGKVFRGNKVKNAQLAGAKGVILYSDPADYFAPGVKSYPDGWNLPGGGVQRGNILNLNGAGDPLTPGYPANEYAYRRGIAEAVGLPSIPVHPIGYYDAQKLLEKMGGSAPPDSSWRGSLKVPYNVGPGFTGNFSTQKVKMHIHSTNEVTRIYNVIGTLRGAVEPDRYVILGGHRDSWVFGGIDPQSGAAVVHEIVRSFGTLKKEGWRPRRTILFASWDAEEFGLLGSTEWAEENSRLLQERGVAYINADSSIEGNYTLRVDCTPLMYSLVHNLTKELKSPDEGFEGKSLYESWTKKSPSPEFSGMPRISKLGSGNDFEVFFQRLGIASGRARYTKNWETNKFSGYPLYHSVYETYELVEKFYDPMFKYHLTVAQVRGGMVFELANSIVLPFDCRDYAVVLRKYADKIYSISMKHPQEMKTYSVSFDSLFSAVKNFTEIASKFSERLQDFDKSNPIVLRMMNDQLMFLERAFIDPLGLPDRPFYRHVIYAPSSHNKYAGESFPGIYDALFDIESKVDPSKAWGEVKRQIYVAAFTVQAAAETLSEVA
Protocol: The interaction of PSMA-binding variants with human FOLH1 was measured with Surface Plasmon Resonance (SPR) technology. Biotinylated FOLH1 was captured at a concentration of 30 μg/mL onto a Streptavidin chip.
Binding kinetics of the analytes were measured with a Biacore 8K instrument in two-fold serial dilutions starting at 500 nM down to 1.95 nM in single cycle kinetic measurements. After each cycle, needles were washed with 50% DMSO. To measure the association to the FOLH1 protein, the samples were injected with a flow rate of 30 μL/min for 90 s, followed by 1200 s buffer only to detect the dissociation. The used running buffer was 1×PBS with 0.05% Tween20 and 2% DMSO. The relative response units (RU, Y-axis) are plotted against time (s, X-axis) and analyzed in a kinetic 1:1 binding model.
In a different setup, biotinylated FOLH1 was captured at a concentration of 0.8 μg/mL and the running buffer was 1×PBS with 0.05% Tween20.

Sequence of Recombinant Human PSMA/FOLH1 Protein (Q04609 whole entry): as above

Row | Compound | IC50 [1] | Ki [1] | Kon (human FOLH1) | koff (human FOLH1)
1 | CC(=O)NCCOCCOCCOCCC(=O)NC[C@H]1CC[C@H](C(=O)N[C@@H](Cc2c[nH]c3ncccc23)C(=O)NCCCC[C@H](NC(=O)N[C@@H](CCC(=O)O)C(=O)O)C(=O)O)CC1 [Compound 22] | 0.488 µM | 0.00349 µM | – | –
2 | CC(=O)NCCOCCOCCOCCC(=O)NC[C@H]1CC[C@H](C(=O)N[C@@H](Cc2ccc3ccccc3c2)C(=O)NCCCC[C@H](NC(=O)N[C@@H](Cc2cnc[nH]2)C(=O)O)C(=O)O)CC1 (stereo in doubt) [Compound 29] | 576 µM | 4.12 µM | – | –
3 | CC(=O)NCCOCCOCCOCCC(=O)N[C@@H]1C[C@@H](C(=O)NCC(=O)N[C@@H](Cc2ccc3ccccc3c2)C(=O)NCCCC[C@H](NC(=O)N[C@@H](CCC(=O)O)C(=O)O)C(=O)O)N(C(=O)CCCOc2cc(C#N)cc(C#N)c2)C1 [Compound 92] | – | – | 297000 1.ms | 0.000301 s⁻¹
4 | CC(=O)NCCOCCOCCOCCC(=O)NC[C@H]1CC[C@H](C(=O)N[C@@H](CCCOc2cc(C#N)cc(C#N)c2)C(=O)NCCCC[C@H](NC(=O)N[C@@H](CCC(=O)O)C(=O)O)C(=O)O)CC1 [Compound 47] | 2.06 µM | 0.0147 µM | – | –
5 | CC(=O)NCCOCCOCCOCCC(=O)N(CCCOc1cc(C#N)cc(C#N)c1)CC(=O)N[C@@H](Cc1ccc2ccccc2c1)C(=O)NCCCC[C@H](NC(=O)N[C@@H](CCC(=O)O)C(=O)O)C(=O)O [Compound 78] | – | – | 487000 1.ms | 0.000208 s⁻¹
6 | C#CC[C@H](NC(=O)N[C@@H](CCCCNC(=O)[C@H](Cc1ccc2ccccc2c1)NC(=O)[C@H]1CC[C@H](CNC(=O)CCOCCOCCOCCNC(C)=O)CC1)C(=O)O)C(=O)O [Compound 50] | 17.6 µM | 0.126 µM | – | –
7 | CC(=O)NCCOCCOCCOCCC(=O)N(CCCOc1cc(C(F)(F)F)cc(C(F)(F)F)c1)CC(=O)N[C@@H](Cc1ccc2ccccc2c1)C(=O)NCCCC[C@H](NC(=O)N[C@@H](CCC(=O)O)C(=O)O)C(=O)O [Compound 86] | – | – | 339000 1.ms | 0.000397 s⁻¹
8 | CC(=O)NCCOCCOCCOCCC(=O)NC[C@H]1CC[C@H](C(=O)N[C@@H](C)C(=O)NCCCC[C@H](NC(=O)N[C@@H](CCC(=O)O)C(=O)O)C(=O)O)CC1 [Compound 4] | 0.537 µM | 0.00384 µM | – | –
9 | CC(=O)NCCOCCOCCOCCC(=O)N[C@@H](CCCOc1cc(C#N)cc(C#N)c1)C(=O)N[C@@H](Cc1ccc2ccccc2c1)C(=O)NCCCC[C@H](NC(=O)N[C@@H](CCC(=O)O)C(=O)O)C(=O)O [Compound 51] | 1.71 µM | 0.0122 µM | – | –
10 | CC(=O)NCCOCCOCCOCCC(=O)NC[C@H]1CC[C@H](C(=O)N[C@@H](Cc2cn(C)cn2)C(=O)NCCCC[C@H](NC(=O)N[C@@H](CCC(=O)O)C(=O)O)C(=O)O)CC1 [Compound 11] | 3.24 µM | 0.0232 µM | – | –
11 | CC(=O)NCCOCCOCCOCCC(=O)NC[C@H]1CC[C@H](C(=O)N[C@@H](Cc2ccc(O)cc2)C(=O)NCCCC[C@H](NC(=O)N[C@@H](CCC(=O)O)C(=O)O)C(=O)O)CC1 [Compound 3] | 0.421 µM | 0.00301 µM | – | –
12 | CC(=O)NCCOCCOCCOCCC(=O)NC[C@H]1CC[C@H](C(=O)N[C@@H](Cc2ccc3ccccc3c2)C(=O)NCCCC[C@H](NC(=O)N[C@@H](Cc2ccc(O)cc2)C(=O)O)C(=O)O)CC1 [Compound 25] | 44.6 µM | 0.319 µM | – | –
13 | CC(=O)NCCOCCOCCOCCC(=O)NC[C@H]1CC[C@H](C(=O)N[C@@H](Cc2c[nH]cn2)C(=O)NCCCC[C@H](NC(=O)N[C@@H](CCC(=O)O)C(=O)O)C(=O)O)CC1 [Compound 9] | 1.08 µM | 0.00774 µM | – | –
14 | CC(=O)NCCOCCOCCOCCC(=O)NC[C@H]1CC[C@H](C(=O)N[C@@H](Cc2cscn2)C(=O)NCCCC[C@H](NC(=O)N[C@@H](CCC(=O)O)C(=O)O)C(=O)O)CC1 [Compound 45] | 0.554 µM | 0.00396 µM | – | –
15 | CC(=O)NCCOCCOCCOCCC(=O)NC[C@H]1CC[C@H](C(=O)N[C@@H](Cc2ccc3ccccc3c2)C(=O)NCCCC[C@H](NC(=O)N[C@@H](CC(C)C)C(=O)O)C(=O)O)CC1 [Compound 26] | 1550 µM | 11 µM | – | –
16 | CC(=O)NCCOCCOCCOCCC(=O)NC[C@H]1CC[C@H](C(=O)N[C@@H](Cc2ccncc2)C(=O)NCCCC[C@H](NC(=O)N[C@@H](CCC(=O)O)C(=O)O)C(=O)O)CC1 [Compound 44] | 0.177 µM | 0.00127 µM | – | –
